Laboratory results: patent US10988478B1, “Pyrazolo[1,5a]pyrimidine derivatives as IRAK4 modulators” (Genentech, Inc., priority 2015, dated 2021)

Target: human IRAK4 (Homo sapiens (Human), UniProt Q9NWZ3)
Experiment: IRAK4 kinase inhibition, Transcreener fluorescence polarization ADP assay
Assay type: biochemical
Details: recombinant full-length His6-IRAK4; 125 uM ATP; 90 min; Ki computed using ATP Km 642 uM
Protocol: Compounds were assayed for inhibition of human IRAK4 and IRAK1 catalytic activity using recombinant enzyme produced from insect cells. Full-length IRAK4 protein, carrying an N-terminal His6-Tag, was obtained from Life Technologies (Carlsbad, Calif., USA). The IRAK1 construct was produced internally and was comprised of IRAK1 residues Arg194 to Ser712, preceded by an NH2-terminal His6 tag and the coding sequence for glutathione-S-transferase.

Chain of human IRAK4 (Q9NWZ3 whole entry): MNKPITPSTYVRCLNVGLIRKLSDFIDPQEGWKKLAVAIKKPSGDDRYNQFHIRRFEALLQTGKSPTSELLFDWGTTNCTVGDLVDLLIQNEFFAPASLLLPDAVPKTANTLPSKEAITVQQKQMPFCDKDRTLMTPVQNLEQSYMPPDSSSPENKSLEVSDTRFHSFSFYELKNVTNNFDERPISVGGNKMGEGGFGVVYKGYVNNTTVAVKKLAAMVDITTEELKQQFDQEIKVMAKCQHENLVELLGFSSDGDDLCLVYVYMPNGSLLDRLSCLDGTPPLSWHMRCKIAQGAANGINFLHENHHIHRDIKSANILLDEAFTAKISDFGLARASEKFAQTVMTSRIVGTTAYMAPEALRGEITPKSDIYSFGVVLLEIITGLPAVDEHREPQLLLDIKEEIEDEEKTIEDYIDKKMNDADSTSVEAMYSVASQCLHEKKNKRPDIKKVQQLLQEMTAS

SMILES	Ki [nM]
CC(C)(O)[C@H](F)CN1Cc2cc(NC(=O)c3cnn4cccnc34)c(N3CCOCC3)cc2S1(=O)=O [Example 289, N-[2-[(2R)-2-Fluoro-3-hydroxy-3-methyl-butyl]-6-morpholino-1,1-dioxo-3H-1,2-benzothiazol-5-yl]pyrazolo[1,5-a]pyrimidine-3-carboxamide]	8
CCOP(=O)(OCC)OCC1(C)Cc2cc(NC(=O)c3cnn4cccnc34)c(N3CCOCC3)cc2O1 (centres unmarked) [Example 290, Diethyl ((2-methyl-6-morpholino-5-(pyrazolo[1,5-a]pyrimidine-3-carboxamido)-2,3-dihydrobenzofuran-2-yl)methyl) phosphate]	180
CC1(C)Cc2cc(NC(=O)c3cnn4cccnc34)c(OC[C@H]3CCCN3)cc2O1 [Example 291, (R)—N-(2,2-Dimethyl-6-(pyrrolidin-2-ylmethoxy)-2,3-dihydrobenzofuran-5-yl)pyrazolo[1,5-a]pyrimidine-3-carboxamide]	380
CC1(C)Cc2cc(NC(=O)c3cnn4cccnc34)c(OC[C@H]3CCCN3CC(F)F)cc2O1 [Example 292, (R)—N-(6-((1-(2,2-Difluoroethyl)pyrrolidin-2-yl)methoxy)-2,2-dimethyl-2,3-dihydrobenzofuran-5-yl)pyrazolo[1,5-a]pyrimidine-3-carboxamide]	760
CC1(C)Cc2cc(NC(=O)c3cnn4cccnc34)c(OC[C@@H]3C[C@@H]4C[C@@H]4N3CC(F)F)cc2O1 [Example 293, N-(6-(((1S,3S,5S)-2-(2,2-difluoroethyl)-2-azabicyclo[3.1.0]hexan-3-yl)methoxy)-2,2-dimethyl-2,3-dihydrobenzofuran-5-yl)pyrazolo[1,5-a]pyrimidine-3-carboxamide]	690
CC1(C)Cc2cc(NC(=O)c3cnn4cccnc34)c(OC[C@@H]3[C@H]4CN(CC(F)F)C[C@@H]34)cc2O1 [Example 294, N-(6-(((1R,5S,6R)-3-(2,2-difluoroethyl)-3-azabicyclo[3.1.0]hexan-6-yl)methoxy)-2,2-dimethyl-2,3-dihydrobenzofuran-5-yl)pyrazolo[1,5-a]pyrimidine-3-carboxamide]	14
CC1(C)Cc2cc(NC(=O)c3cnn4cccnc34)c(OC[C@H]3[C@@H]4CNC[C@@H]43)cc2O1 [Example 295, N-(6-(((1R,5S,6R)-3-azabicyclo[3.1.0]hexan-6-yl)methoxy)-2,2-dimethyl-2,3-dihydrobenzofuran-5-yl)pyrazolo[1,5-a]pyrimidine-3-carboxamide]	8.2
CC1(C)Cc2cc(NC(=O)c3cnn4cccnc34)c(OCC3CCOC3)cc2O1 (stereo not drawn) [Example 296, N-(2,2-Dimethyl-6-((tetrahydrofuran-3-yl)methoxy)-2,3-dihydrobenzofuran-5-yl)pyrazolo[1,5-α]pyrimidine-3-carboxamide]	18
CC1(C)Cc2cc(NC(=O)c3cnn4cccnc34)c(OCc3cccnc3)cc2O1 [Example 297, N-(2,2-Dimethyl-6-(pyridin-3-ylmethoxy)-2,3-dihydrobenzofuran-5-yl)pyrazolo[1,5-α]pyrimidine-3-carboxamide]	23
CC1(C)Cc2cc(NC(=O)c3cnn4cccnc34)c(OCC3CC3)cc2O1 [Example 298, N-(6-(Cyclopropylmethoxy)-2,2-dimethyl-2,3-dihydrobenzofuran-5-yl)pyrazolo[1,5-α]pyrimidine-3-carboxamide]	7
CC1(COc2cc3c(cc2NC(=O)c2cnn4cccnc24)CC(C)(C)O3)COC1 [Example 299, N-(2,2-Dimethyl-6-((3-methyloxetan-3-yl)methoxy)-2,3-dihydrobenzofuran-5-yl)pyrazolo[1,5-α]pyrimidine-3-carboxamide]	31
Cn1cc(COc2cc3c(cc2NC(=O)c2cnn4cccnc24)CC(C)(C)O3)cn1 [Example 300, N-(2,2-Dimethyl-6-((1-methyl-1H-pyrazol-4-yl)methoxy)-2,3-dihydrobenzofuran-5-yl)pyrazolo[1,5-α]pyrimidine-3-carboxamide]	7
CC1(C)Cc2cc(NC(=O)c3cnn4cccnc34)c(OCc3ccncc3)cc2O1 [Example 301, N-(2,2-Dimethyl-6-(pyridin-4-ylmethoxy)-2,3-dihydrobenzofuran-5-yl)pyrazolo[1,5-α]pyrimidine-3-carboxamide]	17
CC1(C)Cc2cc(NC(=O)c3cnn4cccnc34)c(OCC(F)F)cc2O1 [Example 302, N-(6-(2,2-Difluoroethoxy)-2,2-dimethyl-2,3-dihydrobenzofuran-5-yl)pyrazolo[1,5-α]pyrimidine-3-carboxamide]	11
CN1CCCC(Oc2cc3c(cc2NC(=O)c2cnn4cccnc24)CC(C)(C)O3)C1 (stereo not drawn) [Example 304, N-(2,2-Dimethyl-6-((1-methylpiperidin-3-yl)oxy)-2,3-dihydrobenzofuran-5-yl)pyrazolo[1,5-α]pyrimidine-3-carboxamide]	720
CC1(C)Cc2cc(NC(=O)c3cnn4cccnc34)c(OC[C@@H]3CCNC(=O)C3)cc2O1 [Example 305]	29
CC1(C)Cc2cc(NC(=O)c3cnn4cccnc34)c(OC[C@H]3CCNC(=O)C3)cc2O1 [Example 306, (S)-N-(2,2-Dimethyl-6-((2-oxopiperidin-4-yl)methoxy)-2,3-dihydrobenzofuran-5-yl)pyrazolo[1,5-α]pyrimidine-3-carboxamide]	52
CC1(C)Cc2cc(NC(=O)c3cnn4cccnc34)c(OC[C@H]3CNC(=O)C3)cc2O1 [Example 307, N-[2,2-Dimethyl-6-[[(3R)-5-oxopyrrolidin-3-yl]methoxy]-3H-benzofuran-5-yl]pyrazolo[1,5-a]pyrimidine-3-carboxamide]	32
CC1(C)Cc2cc(NC(=O)c3cnn4cccnc34)c(OC[C@@H]3CNC(=O)C3)cc2O1 [Example 308, N-[2,2-Dimethyl-6-[[(3S)-5-oxopyrrolidin-3-yl]methoxy]-3H-benzofuran-5-yl]pyrazolo[1,5-a]pyrimidine-3-carboxamide]	9
CC1(C)Cc2cc(NC(=O)c3cnn4cccnc34)c(OCC3CCNCC3)cc2O1 [Example 309, N-(2,2-Dimethyl-6-(piperidin-4-ylmethoxy)-2,3-dihydrobenzofuran-5-yl)pyrazolo[1,5-α]pyrimidine-3-carboxamide]	15
C[C@@]1(CO)Cc2cc(NC(=O)c3cnn4cccnc34)c(OCC(F)F)cc2O1 [Example 310, (S)-N-(6-(2,2-difluoroethoxy)-2-(hydroxymethyl)-2-methyl-2,3-dihydrobenzofuran-5-yl)pyrazolo[1,5-a]pyrimidine-3-carboxamide]	23
C[C@]1(CO)Cc2cc(NC(=O)c3cnn4cccnc34)c(OCC(F)F)cc2O1 [Example 311, (R)-N-(6-(2,2-difluoroethoxy)-2-(hydroxymethyl)-2-methyl-2,3-dihydrobenzofuran-5-yl)pyrazolo[1,5-a]pyrimidine-3-carboxamide]	10
CC(C)(O)[C@]1(C)Cc2cc(NC(=O)c3cnn4cccnc34)c(O[C@H]3CC[C@@H](O)CC3)cc2O1 [Example 312, N-[(2S)-6-(cis-4-Hydroxycyclo-hexoxy)-2-(1-hydroxy-1-methyl-ethyl)-2-methyl-3H-benzofuran-5-yl]pyrazolo[1,5-a]pyrimidine-3-carboxamide]	73
